# In patent US20230129095A1, “PEPTIDE INHIBITORS OF INTERLEUKIN-23 RECEPTOR AND THEIR USE TO TREAT INFLAMMATORY DISEASES” (Protagonist Therapeutics, Inc., priority 2020, published 2023):
# *1 amine or outer side, *2 acyl side, *3 side chain or, on linkers, in order; H or OH if unused. Where a SMILES comes first, the peptide text is derived from it. Bridges are numbered along the chain shown (N, C = ends). [ ]: non-standard residue; d: D form. X2 = O=C([C@H](Cc1c[nH]c2c(-c3ccc(F)cc3)cccc12)N[*:1])[*:2]; Trp(7-Ph) = N[C@@H](Cc1c[nH]c2c(-c3ccccc3)cccc12)C(=O)O; Ala(quinolin-3-yl) = N[C@@H](Cc1cnc2ccccc2c1)C(=O)O; Abu(4-yl) = O=C([C@H](CC[*:3])N[*:1])[*:2]; 2Nal = N[C@@H](Cc1ccc2ccccc2c1)C(=O)O; AEF = NCCOc1ccc(C[C@H](N)C(=O)O)cc1; Pen = CC(C)(S)[C@H](N)C(=O)O; αMeK = C[C@](N)(CCCCN)C(=O)O; Thp = NC1(C(=O)O)CCOCC1
# Assays:
# [1] = system: Natural killer (NK) cells; assay type: cell-based, human
# From the text: Where not shown, data was not yet determined.
# [2] = Stability in simulated intestinal fluid (SIF); assay type: in vitro ADME; details: 37° C.; for SIF t1/2: 100 fold dilution of standard SIF concentration, 20 μM
# Method: Studies were carried out in simulated intestinal fluid (SIF) and simulated gastric fluid (SGF) to evaluate gastric stability of the peptide inhibitors of the present invention. In addition, studies were carried out to assess redox stability of the peptide inhibitors of the present invention.
# SIF was prepared by adding 6.8 g of monobasic potassium phosphate and 10.0 g of pancreatin to 1.0 L of water. After dissolution, the pH was adjusted to 6.8 using NaOH. DMSO stocks (2 mM) were first prepared for the test compounds. Aliquots of the DMSO solutions were dosed into 6 individual tubes, each containing 0.5 mL of SIF, which is pre-warmed to 37° C. The final test compound concentration was 20 μM. The vials were kept in a benchtop Thermomixer® for the duration of the experiment. At each timepoint (0, 5, 10, 20, 40, 60, or 360 minutes or 24 hours), 1.0 mL of acetonitrile containing 1% formic acid was added to one vial to terminate the reaction. Samples were stored at 4° C. until the end of the experiment. After the final timepoint is sampled, the tubes were mixed and then centrifuged at 3,000 rpm for 10 minutes. Aliquots of the supernatant were removed, diluted 1:1 into distilled water containing internal standard, and analyzed by LCMS/MS. Percent remaining at each timepoint was calculated based on the peak area response ratio of test to compound to internal standard. Time 0 was set to 100%, and all later timepoints were calculated relative to time 0. Half-lives were calculated by fitting to a first-order exponential decay equation using Graphpad.
# [3] = Stability in human fecal homogenate (anaerobic); assay type: in vitro ADME; details: pH 6.8, 20% human fecal homogenate, 37° C., up to 24 hours, read-out: t1/2: Human Feces anaerobic
# Method: (§1) Studies were carried out in human or cynomolgus monkey fecal homogenate to evaluate gastrointestinal stability of the peptide inhibitors of the present invention.
# (§2) Fecal homogenate ([…]) was prepared by adding 4 mL of growth medium (1 liter contains 2 g peptone water powder, 2 g yeast extract, 0.1 g NaCl, 0.04 g KH2PO4, 0.01 g CaCl2.6H2O, 0.01 g MgSO4.7H2O, 2 mL Tween 80, 0.5 g bile salts, 0.5 g L-cysteine HCl, 2 g NaHCO3, and 10 μL Vitamin K, pH adjusted to 6.8, and sterilized by filtration through a 0.22 μm filter) to every gram of feces (pooled freshly collected human or cynomolgus monkey feces). The suspension was vortexed to break up large clumps, and homogenized using a bead mill homogenizer. Centrifuged the homogenate at 2800×g for 15 min. The supernatant is taken out and used for incubations. DMSO stocks (10 mM) were first prepared for the test compounds. Incubations were performed in an anaerobic chamber conditioned at 37° C. Aliquots of the DMSO solutions were dosed into 1.0 mL aliquots of 20% fecal homogenate, which are pre-warmed to 37° C. The final test compound concentration was 20 μM. At each timepoint (0, 20 min, 1, 3, 6, or 24 hours), 100 μL aliquot of each incubation mixture is taken out and added to separate tubes containing 300 μL of 50% acetonitrile/50% methanol and an internal standard to terminate the reaction. Samples were taken out of the anaerobic chamber and stored at 4° C. until the end of the experiment. After the final timepoint is sampled, the tubes were mixed and then centrifuged at 3,000 rpm for 10 minutes. Aliquots of the supernatant were removed, diluted 1:1 into distilled water containing 0.1% formic acid, and analyzed by LC/MS/MS. Percent remaining at each timepoint was calculated based on the peak area response ratio of test to compound to internal standard. Time 0 was set to 100%, and all later timepoints were calculated relative to time 0. Half-lives were calculated by fitting to a first-order exponential decay equation using Graphpad or Excel.
# [4] = Stability in cynomolgus monkey fecal homogenate (anaerobic); assay type: in vitro ADME; details: pH 6.8, 20% cynomolgus monkey fecal homogenate, 37° C., up to 24 hours, read-out: t1/2: Monkey Feces anaerobic (converted)
# Method: as §1, §2
# Stability in rat plasma = assay type: in vitro ADME; details: both sexes, SD rat plasma, EDTA, 37° C., up to 24 hours, read-out: t1/2: Rat Plasma EDTA
# Method: Peptides of interest (20 μM) were incubated with pre-warmed rat plasma (SD rat, mixed gender pooled, EDTA, filtered through 0.22 μm, BioreclamationIVT) at 37° C. Aliquots were taken at various time points up to 24 hours (e.g. 0, 0.25, 1, 3, 6 and 24 hr), and immediately quenched with 4 volumes of organic solvent (acetonitrile/methanol (1:1) and 0.1% formic acid, containing 1 μM internal standard). Quenched samples were stored at 4° C. until the end of the experiment and centrifuged at 4,000 rpm for 10 minutes. The supernatant were diluted 1:1 with deionized water and analyzed using LC-MS. Percentage remaining at each time point was calculated based on the peak area ratio (analyte over internal standard) relative to the initial level at time zero. Half-lives were calculated by fitting to a first-order exponential decay equation using GraphPad.
# [5] = 20% fecal homogenate (supernatant)
structure (smiles),measurement,setting,value
"CC(=O)NCCCC[C@@H]1NC(=O)[C@H](Cc2c[nH]c3c(-c4ccc(F)cc4)cccc23)NC(=O)[C@H]([C@@H](C)O)NC(=O)[C@H](CC(N)=O)NC(=O)[C@@H](NC(C)=O)C(C)(C)SSC(C)(C)[C@@H](C(=O)N[C@@H](Cc2ccc(OCCN)cc2)C(=O)N[C@@H](Cc2ccc3ccccc3c2)C(=O)N[C@@](C)(CCCCN)C(=O)N[C@@H](CCCCNC(C)=O)C(=O)N[C@@H](CC(N)=O)C(=O)N[C@H](CCCCN)C(N)=O)NC1=O [Peptide 10, Ac-[Pen]-N-T-[W(7-(4-FPh))]-[Lys(Ac)]-[Pen]-Phe[4-(2-aminoethoxy)]-[2-Nal]-[a-MeLys]-[Lys(Ac)]-N-[(D)Lys)]-NH2] (Ac-[Pen]NT[X2]K(Ac)[Pen][AEF][2Nal][αMeK]K(Ac)N[dK]-NH2; disulfide 1-6)",IC50,[1],3.32 nM
same,SIF t1/2,[2],24 h
same,half-life at 20 μM,[3],> 24 h
same,half-life at 20 μM,[4],> 24 h
same,half-life at 20 μM,Stability in rat plasma; pooled,> 24 h
"CC(=O)NCCCC[C@@H]1NC(=O)[C@H](Cc2c[nH]c3c(-c4ccccc4)cccc23)NC(=O)[C@H]([C@@H](C)O)NC(=O)[C@H](CC(N)=O)NC(=O)[C@@H](NC(C)=O)C(C)(C)SSC(C)(C)[C@@H](C(=O)N[C@@H](Cc2ccc(OCCN)cc2)C(=O)N[C@@H](Cc2cnc3ccccc3c2)C(=O)NC2(C(=O)N[C@@H](CCC(=O)O)C(=O)N[C@@H](CC(N)=O)C(=O)N[C@H](CCCCN)C(N)=O)CCOCC2)NC1=O [Peptide 13, Ac-[Pen]-N-T-[W(7-Ph)]-[Lys(Ac)]-[Pen]-Phe[4-(2-aminoethoxy)]-[3Quin]-[THP]-E-N-[(D)Lys]-NH2] (Ac-[Pen]NT[Trp(7-Ph)]K(Ac)[Pen][AEF][Ala(quinolin-3-yl)][Thp]EN[dK]-NH2; disulfide 1-6)",IC50,[1],1.55 nM
same,SIF t1/2,[2],24 h
same,half-life at 20 μM,[3]; [5],> 24 h
same,half-life at 20 μM,[4]; [5],> 24 h
same,half-life at 20 μM,Stability in rat plasma,> 24 h
"CC(=O)NCCCC[C@@H]1NC(=O)[C@H](Cc2c[nH]c3c(-c4ccccc4)cccc23)NC(=O)[C@H]([C@@H](C)O)NC(=O)[C@H](CC(N)=O)NC(=O)[C@@H](NC(C)=O)C(C)(C)SSC(C)(C)[C@@H](C(=O)N[C@@H](Cc2ccc(OCCN)cc2)C(=O)N[C@@H](Cc2cnc3ccccc3c2)C(=O)N[C@@](C)(CCCCN)C(=O)N[C@@H](CCCCNC(C)=O)C(=O)N[C@@H](CC(N)=O)C(=O)N[C@H](CCCCN)C(N)=O)NC1=O [Peptide 14, Ac-[Pen]-N-T-[W(7-Ph)]-[Lys(Ac)]-[Pen]-Phe[4-(2-aminoethoxy)]-[3Quin]-[a-MeLys]-[Lys(Ac)]-N-[(D)Lys]-NH2] (Ac-[Pen]NT[Trp(7-Ph)]K(Ac)[Pen][AEF][Ala(quinolin-3-yl)][αMeK]K(Ac)N[dK]-NH2; disulfide 1-6)",IC50,[1],2.41 nM
same,SIF t1/2,[2],24 h
same,half-life at 20 μM,[3]; [5],> 24 h
same,half-life at 20 μM,[4]; [5],> 24 h
same,half-life at 20 μM,Stability in rat plasma,> 24 h
"CC(=O)NCCCC[C@@H]1NC(=O)[C@H](Cc2c[nH]c3c(-c4ccccc4)cccc23)NC(=O)[C@H]([C@@H](C)O)NC(=O)[C@H](CC(N)=O)NC(=O)[C@@H](NC(C)=O)C(C)(C)SSC(C)(C)[C@@H](C(=O)N[C@@H](Cc2ccc(OCCN)cc2)C(=O)N[C@@H](Cc2cnc3ccccc3c2)C(=O)NC2(C(=O)N[C@@H](CCC(=O)O)C(=O)N[C@@H](CC(N)=O)C(=O)N[C@H](CC(C)C)C(N)=O)CCOCC2)NC1=O [Peptide 15, Ac-[Pen]-N-T-[W(7-Ph)]-[Lys(Ac)]-[Pen]-Phe[4-(2-aminoethoxy)]-[3Quin]-[THP]-E-N-[(D)Leu]-NH2] (Ac-[Pen]NT[Trp(7-Ph)]K(Ac)[Pen][AEF][Ala(quinolin-3-yl)][Thp]EN[dL]-NH2; disulfide 1-6)",IC50,[1],2.44 nM
same,SIF t1/2,[2],24 h
same,half-life at 20 μM,[3]; [5],> 24 h
same,half-life at 20 μM,[4]; [5],> 24 h
same,half-life at 20 μM,Stability in rat plasma,> 24 h
"CC(=O)NCCCC[C@@H]1NC(=O)[C@H](Cc2c[nH]c3c(-c4ccccc4)cccc23)NC(=O)[C@H]([C@@H](C)O)NC(=O)[C@H](CC(N)=O)NC(=O)[C@@H](NC(C)=O)C(C)(C)SSC(C)(C)[C@@H](C(=O)N[C@@H](Cc2ccc(OCCN)cc2)C(=O)N[C@@H](Cc2cnc3ccccc3c2)C(=O)N[C@@](C)(CCCCN)C(=O)N[C@@H](CCCCNC(C)=O)C(=O)N[C@@H](CC(N)=O)C(=O)N[C@H](CC(C)C)C(N)=O)NC1=O [Peptide 16, Ac-[Pen]-N-T-[W(7-Ph)]-[Lys(Ac)]-[Pen]-Phe[4-(2-aminoethoxy)]-[3Quin]-[a-MeLys]-[Lys(Ac)]-N-[(D)Leu]-NH2] (Ac-[Pen]NT[Trp(7-Ph)]K(Ac)[Pen][AEF][Ala(quinolin-3-yl)][αMeK]K(Ac)N[dL]-NH2; disulfide 1-6)",IC50,[1],2.9 nM
same,SIF t1/2,[2],24 h
same,half-life at 20 μM,[3]; [5],> 24 h
same,half-life at 20 μM,[4]; [5],> 24 h
same,half-life at 20 μM,Stability in rat plasma,> 24 h
"CC(=O)NCCCC[C@@H]1NC(=O)[C@H](Cc2c[nH]c3c(-c4ccccc4)cccc23)NC(=O)[C@H]([C@@H](C)O)NC(=O)[C@H](CCC(N)=O)NC(=O)[C@@H](NC(C)=O)CCSC[C@@H](C(=O)N[C@@H](Cc2ccc(OCCN)cc2)C(=O)N[C@@H](Cc2ccc3ccccc3c2)C(=O)N[C@@](C)(CCCCN)C(=O)N[C@@H](CCCCNC(C)=O)C(=O)N[C@@H](CC(N)=O)C(=O)N[C@H](CC(C)C)C(N)=O)NC1=O [Peptide 18, Ac-[Abu]-Q-T-[W(7-Ph)]-[Lys(Ac)]-[Cys]-Phe[4-(2-aminoethoxy)]-[2-Nal]-[a-MeLys]-[Lys(Ac)]-N-[(D)Leu]-NH2] (Ac-[Abu(4-yl)]QT[Trp(7-Ph)]K(Ac)C[AEF][2Nal][αMeK]K(Ac)N[dL]-NH2; thioether 1-6)",IC50,[1],6.28 nM
same,half-life at 20 μM,"[2]; pH 6.8, 100 fold dilution of standard SIF concentration, read-out: SIF t1/2 (converted)",19.8 h
same,half-life at 20 μM,[3],> 24 h
same,half-life at 20 μM,[4],> 24 h
same,half-life at 20 μM,Stability in rat plasma; pooled,> 24 h
